Type in all cases: cell-based
For test [1], the target named is T1, SMARCA2 (Homo sapiens, UniProt P51531). The experiment in a line: SMARCA2 Western blot MV4-11 degradation. As to conditions: 24 h; for Dmax: MV4-11, MV4-11 cells, read-out: SMARCA2 MSD MV411 degradation 24 h: average Dmax %; for DC50: MV4-11 cells, read-out: SMARCA2 MSD MV411 degradation 24 h: Mean external-Abs DC50. Also on record: SMARCA2 and SMARCA4 protein degradation in MV4-11 cells; endogenous in cells; host or cells: MV4-11. For orientation: In western blotting, separated proteins are transferred to a membrane and probed.
T1 sequence (P51531 whole entry): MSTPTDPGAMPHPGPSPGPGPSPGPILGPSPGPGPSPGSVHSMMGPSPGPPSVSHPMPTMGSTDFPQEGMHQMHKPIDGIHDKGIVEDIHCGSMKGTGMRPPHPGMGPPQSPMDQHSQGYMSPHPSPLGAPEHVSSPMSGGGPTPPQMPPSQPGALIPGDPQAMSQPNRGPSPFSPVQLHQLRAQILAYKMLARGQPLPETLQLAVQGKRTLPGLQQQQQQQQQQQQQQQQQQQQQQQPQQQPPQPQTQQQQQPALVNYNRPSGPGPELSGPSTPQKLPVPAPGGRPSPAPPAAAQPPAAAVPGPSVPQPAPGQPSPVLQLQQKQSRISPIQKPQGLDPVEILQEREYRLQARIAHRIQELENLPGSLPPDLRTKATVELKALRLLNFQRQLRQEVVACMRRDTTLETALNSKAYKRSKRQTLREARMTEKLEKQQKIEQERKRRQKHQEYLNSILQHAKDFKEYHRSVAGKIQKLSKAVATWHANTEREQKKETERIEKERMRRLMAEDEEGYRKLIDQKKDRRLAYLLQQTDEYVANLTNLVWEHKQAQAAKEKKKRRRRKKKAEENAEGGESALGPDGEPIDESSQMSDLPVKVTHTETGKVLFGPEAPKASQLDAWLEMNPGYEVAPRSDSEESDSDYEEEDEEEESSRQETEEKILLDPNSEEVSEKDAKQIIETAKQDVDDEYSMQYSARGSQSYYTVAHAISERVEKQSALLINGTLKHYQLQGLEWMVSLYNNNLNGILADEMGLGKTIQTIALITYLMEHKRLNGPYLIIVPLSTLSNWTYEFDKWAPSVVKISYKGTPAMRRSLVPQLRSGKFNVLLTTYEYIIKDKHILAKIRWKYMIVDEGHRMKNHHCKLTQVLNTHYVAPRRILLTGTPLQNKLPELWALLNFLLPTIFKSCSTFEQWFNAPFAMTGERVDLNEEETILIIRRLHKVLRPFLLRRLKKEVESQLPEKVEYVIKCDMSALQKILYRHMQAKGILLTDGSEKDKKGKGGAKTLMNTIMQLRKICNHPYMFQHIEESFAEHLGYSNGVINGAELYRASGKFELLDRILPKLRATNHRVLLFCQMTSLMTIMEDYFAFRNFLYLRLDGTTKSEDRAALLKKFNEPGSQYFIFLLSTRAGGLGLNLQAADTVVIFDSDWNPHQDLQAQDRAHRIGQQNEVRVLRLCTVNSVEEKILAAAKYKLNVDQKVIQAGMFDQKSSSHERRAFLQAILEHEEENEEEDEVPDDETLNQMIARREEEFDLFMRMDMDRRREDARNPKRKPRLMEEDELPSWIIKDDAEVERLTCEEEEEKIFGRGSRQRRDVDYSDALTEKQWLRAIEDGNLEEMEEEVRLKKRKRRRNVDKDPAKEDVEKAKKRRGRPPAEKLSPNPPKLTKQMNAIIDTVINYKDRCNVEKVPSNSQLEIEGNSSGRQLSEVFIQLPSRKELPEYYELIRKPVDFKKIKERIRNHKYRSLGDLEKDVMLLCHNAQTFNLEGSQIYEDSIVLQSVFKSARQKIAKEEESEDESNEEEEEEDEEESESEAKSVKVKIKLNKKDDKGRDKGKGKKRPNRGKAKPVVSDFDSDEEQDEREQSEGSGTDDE

Test [2] has as its target T1, SMARCA2. Description: MSD SMARCA2 degradation in A549 cell line. The arrangement: endogenous in cells. The note with it: 24 h; for Dmax: A549, A549 cells; for DC50: A549 cells, read-out: SMARCA2 MSD A549 degradation 24 h: Average external-Abs DC50. The essentials: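 A549 cells treated 24 h with compound, 3-fold series 1000 nM down to 0.152 nM plus DMSO. RIPA lysates captured on MSD plates, probed with rabbit anti-SMARCA2/BRM (1 µg/ml) then SULFO-TAG anti-rabbit, electrochemiluminescence read. DC50 and 24 h Dmax reported as letter bins.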

In a further test the target is T2, SMARCA4 (Homo sapiens, UniProt P51532).
T2 construct: SMARCA2 and SMARCA4 protein degradation in MV4-11 cells; endogenous in cells; host or cells: MV4-11
T2 sequence (P51532 whole entry): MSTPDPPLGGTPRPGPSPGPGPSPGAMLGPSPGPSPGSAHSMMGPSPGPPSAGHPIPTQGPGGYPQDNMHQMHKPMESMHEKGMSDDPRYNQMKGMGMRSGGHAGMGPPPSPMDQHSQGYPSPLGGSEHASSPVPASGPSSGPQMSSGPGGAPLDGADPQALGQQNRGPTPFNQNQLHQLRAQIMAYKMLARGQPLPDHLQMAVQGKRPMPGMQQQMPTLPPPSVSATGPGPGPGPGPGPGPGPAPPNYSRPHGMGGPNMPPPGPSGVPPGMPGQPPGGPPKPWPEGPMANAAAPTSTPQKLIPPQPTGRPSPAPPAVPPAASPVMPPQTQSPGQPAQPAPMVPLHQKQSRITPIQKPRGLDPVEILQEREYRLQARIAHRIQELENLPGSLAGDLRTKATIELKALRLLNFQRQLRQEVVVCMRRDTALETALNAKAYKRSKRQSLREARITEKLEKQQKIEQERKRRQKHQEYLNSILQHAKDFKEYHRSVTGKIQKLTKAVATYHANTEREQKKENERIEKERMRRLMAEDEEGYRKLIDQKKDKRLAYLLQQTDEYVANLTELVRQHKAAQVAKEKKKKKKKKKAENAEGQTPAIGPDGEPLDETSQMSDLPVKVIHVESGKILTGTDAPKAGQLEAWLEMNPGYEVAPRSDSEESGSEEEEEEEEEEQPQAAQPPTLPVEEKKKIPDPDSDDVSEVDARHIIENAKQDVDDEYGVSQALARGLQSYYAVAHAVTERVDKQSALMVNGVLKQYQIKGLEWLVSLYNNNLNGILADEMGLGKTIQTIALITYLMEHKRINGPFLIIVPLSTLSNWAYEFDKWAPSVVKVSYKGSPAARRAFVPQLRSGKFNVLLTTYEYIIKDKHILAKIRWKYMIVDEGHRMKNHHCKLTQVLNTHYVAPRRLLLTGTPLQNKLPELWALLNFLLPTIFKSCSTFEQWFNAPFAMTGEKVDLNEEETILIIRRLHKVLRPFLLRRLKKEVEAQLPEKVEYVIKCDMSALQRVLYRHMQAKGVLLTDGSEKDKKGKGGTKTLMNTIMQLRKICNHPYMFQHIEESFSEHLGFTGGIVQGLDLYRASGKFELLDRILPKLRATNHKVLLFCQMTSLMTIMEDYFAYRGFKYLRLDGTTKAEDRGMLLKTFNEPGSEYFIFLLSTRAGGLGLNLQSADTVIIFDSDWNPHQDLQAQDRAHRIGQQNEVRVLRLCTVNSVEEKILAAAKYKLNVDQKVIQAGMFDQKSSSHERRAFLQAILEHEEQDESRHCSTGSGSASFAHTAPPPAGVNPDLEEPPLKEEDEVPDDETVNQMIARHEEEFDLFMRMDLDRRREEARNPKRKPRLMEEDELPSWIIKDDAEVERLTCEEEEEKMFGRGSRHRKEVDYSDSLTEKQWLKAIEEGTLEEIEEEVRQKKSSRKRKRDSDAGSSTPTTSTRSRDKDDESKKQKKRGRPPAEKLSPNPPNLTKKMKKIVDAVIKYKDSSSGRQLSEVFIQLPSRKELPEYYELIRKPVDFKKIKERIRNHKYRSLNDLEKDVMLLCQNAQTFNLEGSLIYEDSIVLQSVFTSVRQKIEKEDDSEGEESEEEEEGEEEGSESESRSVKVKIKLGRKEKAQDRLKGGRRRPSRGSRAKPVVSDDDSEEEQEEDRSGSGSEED
Description: SMARCA4 Western blot MV4-11 degradation. The note with it: 24 h; for Dmax: MV4-11, MV4-11 cells, read-out: SMARCA4 MSD MV411 degradation 24 h: average Dmax %; for DC50: MV4-11 cells, read-out: SMARCA4 MSD MV411 degradation 24 h: Mean external-Abs DC50.

As a reminder, the Dmax is the largest share of the target that was removed. What is called DC50 is the concentration at which degradation of the target reaches its halfway point.

The structures appear in SMILES notation.

In the case of `Cc1ncsc1-c1ccc(CNC(=O)[C@@H]2C[C@@H](O)CN2C(=O)[C@@H](NC(=O)[C@H]2CCC3(CC2)C[C@H](N2CCC(c4cnc(N5C6CCC5CN(c5cc(-c7ccccc7O)nnc5N)C6)nc4)CC2)C3)C(C)(C)C)cc1` (stereo partly drawn) [I-42, (2S,4R)-1-((2S)-2-(2-(4-(2-(3-(3-amino-6-(2-hydroxyphenyl)pyridazin-4-yl)-3,8-diazabicyclo[3.2.1]octan-8-yl)pyrimidin-5-yl)piperidin-1-yl)spiro[3.5]nonane-7-carboxamido)-3,3-dimethylbutanoyl)-4-hydroxy-N-(4-(4-methylthiazol-5-yl)benzyl)pyrrolidine-2-carboxamide], the Dmax is 70 to 90% at SMARCA2 [1], 70 to 90% at SMARCA2 [2] and under 50% on SMARCA4. The DC50 is under 100 nM at SMARCA2 [1], 100 to 500 nM on SMARCA2 [2] and over 1000 nM at SMARCA4.
As to `Cc1ncsc1-c1ccc(CNC(=O)[C@@H]2C[C@@H](O)CN2C(=O)[C@@H](NC(=O)[C@H]2CCC3(CC2)C[C@H](N2CCC(c4cnc(N5C6CCC5CN(c5cc(-c7ccccc7O)nnc5N)C6)nc4)CC2)C3)C(C)(C)C)cc1` (stereo partly drawn) [I-43, (2S,4R)-1-((2S)-2-(2-(4-(2-(3-(3-amino-6-(2-hydroxyphenyl)pyridazin-4-yl)-3,8-diazabicyclo[3.2.1]octan-8-yl)pyrimidin-5-yl)piperidin-1-yl)spiro[3.5]nonane-7-carboxamido)-3,3-dimethylbutanoyl)-4-hydroxy-N-(4-(4-methylthiazol-5-yl)benzyl)-pyrrolidine-2-carboxamide], the DC50 is under 100 nM on SMARCA2 [1], 100 to 500 nM on SMARCA2 [2] and over 1000 nM on SMARCA4.
As for `Cc1ncsc1-c1ccc(CNC(=O)[C@@H]2C[C@@H](O)CN2C(=O)C(c2cc(OCCN3CCC(c4cnc(N5C6CCC5CN(c5cc(-c7ccccc7O)nnc5N)C6)nc4)CC3)no2)C(C)C)cc1` (stereo partly drawn) [I-50, (2S,4R)-1-(2-(3-(2-(4-(2-(3-(3-amino-6-(2-hydroxyphenyl)pyridazin-4-yl)-3,8-diazabicyclo[3.2.1]octan-8-yl)pyrimidin-5-yl)piperidin-1-yl)ethoxy)isoxazol-5-yl)-3-methylbutanoyl)-4-hydroxy-N-(4-(4-methylthiazol-5-yl)benzyl)pyrrolidine-2-carboxamide], the Dmax at SMARCA2 [1], at SMARCA2 [2] and on SMARCA4 was over 90% in each case. The half-maximal degradation concentration (DC50) on SMARCA2 [1], at SMARCA2 [2] and on SMARCA4 was under 100 nM throughout.
As to `Cc1ncsc1-c1ccc(CNC(=O)[C@@H]2C[C@@H](O)CN2C(=O)[C@H](c2cc(OCCCN3CCC(c4cnc(N5C6CCC5CN(c5cc(-c7ccccc7O)nnc5N)C6)nc4)CC3)no2)C(C)C)cc1` [I-52, (2S,4R)-1-((2S)-2-(3-(3-(4-(2-(3-(3-amino-6-(2-hydroxyphenyl)pyridazin-4-yl)-3,8-diazabicyclo[3.2.1]octan-8-yl)pyrimidin-5-yl)piperidin-1-yl)propoxy)isoxazol-5-yl)-3-methylbutanoyl)-4-hydroxy-N-(4-(4-methylthiazol-5-yl)benzyl)pyrrolidine-2-carboxamide], the greatest degradation seen (Dmax) at SMARCA2 [1], on SMARCA2 [2] and on SMARCA4 was over 90% each time. In addition, the DC50 at SMARCA2 [1], on SMARCA2 [2] and on SMARCA4 was under 100 nM each time.
On to `Cc1ncsc1-c1ccc(CNC(=O)[C@@H]2C[C@@H](O)CN2C(=O)[C@@H](c2cc(OCCCCN3CCC(c4cnc(N5C6CCC5CN(c5cc(-c7ccccc7O)nnc5N)C6)nc4)CC3)no2)C(C)C)cc1` [I-55, (2S,4R)-1-((2R)-2-(3-(4-(4-(2-(3-(3-amino-6-(2-hydroxyphenyl)pyridazin-4-yl)-3,8-diazabicyclo[3.2.1]octan-8-yl)pyrimidin-5-yl)piperidin-1-yl)butoxy)isoxazol-5-yl)-3-methylbutanoyl)-4-hydroxy-N-(4-(4-methylthiazol-5-yl)benzyl)pyrrolidine-2-carboxamide], for which the Dmax at SMARCA2 [1], on SMARCA2 [2] and on SMARCA4 was over 90% each time. Also, the DC50 at SMARCA2 [1], at SMARCA2 [2] and at SMARCA4 was under 100 nM in each case.
Turning to `Cc1ncsc1-c1ccc(CNC(=O)[C@@H]2C[C@@H](O)CN2C(=O)[C@@H](NC(=O)N2CC3(CC(N4CCC(c5cnc(N6C7CCC6CN(c6cc(-c8ccccc8O)nnc6N)C7)nc5)CC4)C3)C2)C(C)(C)C)cc1` [I-58, 6-(4-(2-(3-(3-amino-6-(2-hydroxyphenyl)pyridazin-4-yl)-3,8-diazabicyclo[3.2.1]octan-8-yl)pyrimidin-5-yl)piperidin-1-yl)-N—((S)-1-((2S,4R)-4-hydroxy-2-((4-(4-methylthiazol-5-yl)benzyl)carbamoyl)pyrrolidin-1-yl)-3,3-dimethyl-1-oxobutan-2-yl)-2-azaspiro[3.3]heptane-2-carboxamide], the Dmax at SMARCA2 [1] was over 90%; at SMARCA2 [2], over 90%; at SMARCA4 it was 50 to 70%. For the same compound, the DC50 on SMARCA2 [1] is under 100 nM; at SMARCA2 [2] it was under 100 nM; on SMARCA4 it was 100 to 500 nM.
For the compound `Cc1ncsc1-c1ccc(CNC(=O)[C@@H]2C[C@@H](O)CN2C(=O)[C@@H](NC(=O)N2CCC(N3CCC(c4cnc(N5C6CCC5CN(c5cc(-c7ccccc7O)nnc5N)C6)nc4)CC3)CC2)C(C)(C)C)cc1` [I-59, 4-(2-(3-(3-amino-6-(2-hydroxyphenyl)pyridazin-4-yl)-3,8-diazabicyclo[3.2.1]octan-8-yl)pyrimidin-5-yl)-N—((S)-1-((2S,4R)-4-hydroxy-2-((4-(4-methylthiazol-5-yl)benzyl)carbamoyl)pyrrolidin-1-yl)-3,3-dimethyl-1-oxobutan-2-yl)-[1,4′-bipiperidine]-1′-carboxamide], the Dmax on SMARCA2 [1], on SMARCA2 [2] and at SMARCA4 was under 50% throughout. Moreover, the DC50 is 501 to 1000 nM on SMARCA2 [1], over 1000 nM on SMARCA2 [2] and over 1000 nM at SMARCA4.
Turning to `Cc1ncsc1-c1ccc(CNC(=O)[C@@H]2C[C@@H](O)CN2C(=O)C(c2cc(N3CCC(CCN4CCC(c5cnc(N6C7CCC6CN(c6cc(-c8ccccc8O)nnc6N)C7)nc5)CC4)CC3)no2)C(C)C)cc1` (stereo partly drawn) [I-61, (2S,4R)-1-(2-(3-(4-(2-(4-(2-(3-(3-amino-6-(2-hydroxyphenyl)pyridazin-4-yl)-3,8-diazabicyclo[3.2.1]octan-8-yl)pyrimidin-5-yl)piperidin-1-yl)ethyl)piperidin-1-yl)isoxazol-5-yl)-3-methylbutanoyl)-4-hydroxy-N-(4-(4-methylthiazol-5-yl)benzyl)pyrrolidine-2-carboxamide], the Dmax at SMARCA2 [1], on SMARCA2 [2] and on SMARCA4 was over 90% each time. Moreover, the half-maximal degradation concentration (DC50) at SMARCA2 [1], at SMARCA2 [2] and at SMARCA4 was under 100 nM in each case.
Turning to `Cn1nccc1-c1ccc(CNC(=O)[C@@H]2C[C@@H](O)CN2C(=O)[C@@H](NC(=O)[C@H]2CC[C@H](c3cnc(N4C5CCC4CN(c4cc(-c6ccccc6O)nnc4N)C5)nc3)CC2)C(C)(C)C)cc1` [I-68, (2S,4R)-1-((2S)-2-((1r,4S)-4-(2-(3-(3-amino-6-(2-hydroxyphenyl)pyridazin-4-yl)-3,8-diazabicyclo[3.2.1]octan-8-yl)pyrimidin-5-yl)cyclohexanecarboxamido)-3,3-dime-thylbutanoyl)-4-hydroxy-N-(4-(1-methyl-1H-pyrazol-5-yl)benzyl)pyrrolidine-2-carboxamide], the Dmax on SMARCA2 [1], on SMARCA2 [2] and at SMARCA4 was over 90% throughout. Moreover, the 50% degradation concentration (DC50) at SMARCA2 [1], at SMARCA2 [2] and on SMARCA4 was under 100 nM in each case.

The values above are taken from patent US12606568B2, “SMARCA degraders and uses thereof” (Kymera Therapeutics, Inc., priority 2020, dated 2026).
